In PMC9266822, “Thermal Shift Assay for Small GTPase Stability Screening: Evaluation and Suitability” (International Journal of Molecular Sciences, 2022):
Entries after “also recorded” stand apart in the source; their conditions may differ.

Columns and labels:
[1] = test system: T1, KRAS WT; test: Protein-Probe thermal stability assay; type: binding, human; settings: for Thermal Stability (°C): Table S1
T1 construct: His6-MBP (N, cleaved yes); made in house; host or cells: E. coli
Protocol: (§1) All Protein-Probe assays were performed using a sample volume of 8 µL and a two-step assay protocol. Detection was performed at room temperature (RT) by adding 65 µL Protein-Probe solution: 4 µM HIDC (1,1,3,3,3′,3′-hexamethylindodicarbocyanine iodide) and 1–1.5 nM Eu^3+-labeled peptide probe (NH2-[…]). Assays were performed in a sample buffer containing 10 mM HEPES (pH 7.5), 0.001% Triton X-100 and 20 mM NaCl and the buffer was supplemented with 0–10 mM MgCl2, 0–1 mM CaCl2, or 0–1 mM EDTA, depending on the assay. In all thermal stability assays, samples were preincubated at RT for 10 min (nucleotides) or 30 min (inhibitors) prior to thermal measurements. Depending on the studied protein, thermal ramping was performed up to 95 °C, using 5 °C intervals. At each temperature, samples were incubated for 3 min before the Protein-Probe solution was added, and the TRL-signals at 620 nm were monitored at RT.
(§2) In addition, KRAS WT was monitored in a sample buffer supplemented with 0–10 mM MgCl2 or 0–1 mM CaCl2.
[…] KRAS WT (50 nM) was also monitored with 10 µM GDP in a buffer without MgCl2 or supplemented with 0–1 mM CaCl2 or 1 mM EDTA. HRAS (2 µM), NRAS (2 µM), RhoA (2 µM), and Gαi (50 nM) were monitored with 100 µM GDP, GTP, or ATP in buffers with or without 1 mM MgCl2 and 1 mM EDTA. In addition, melting curves for KRAS WT (50 nM) were measured with GTP analogs GTPγS, GMPPNP, and GMPPCP (0–300 µM), and GMP (0–1000 µM) in the presence of 1 mM MgCl2.
(§3) All inhibitor assays were performed with a buffer containing 1 mM MgCl2. […]

[2] = test system: T2, KRAS G12C; test: Protein-Probe thermal stability assay; type: binding, human; settings: Table S1; KRAS G12C 50 nM; EDTA 0.5 mM, MgCl2 1 mM
T2 construct: GG-Hs.KRAS4b (2-188) G12C; His6-MBP (N, cleaved yes); made in house; host or cells: E. coli
Protocol: All Protein-Probe assays were performed using a sample volume of 8 µL and a two-step assay protocol. […] Assays were performed in a sample buffer containing 10 mM HEPES (pH 7.5), 0.001% Triton X-100 and 20 mM NaCl and the buffer was supplemented with 0–10 mM MgCl2, 0–1 mM CaCl2, or 0–1 mM EDTA, depending on the assay. In all thermal stability assays, samples were preincubated at RT for 10 min (nucleotides) or 30 min (inhibitors) prior to thermal measurements. […] At each temperature, samples were incubated for 3 min before the Protein-Probe solution was added, and the TRL-signals at 620 nm were monitored at RT. […]
as §3

[3] = test system: KRAS G12D; test: Protein-Probe thermal stability assay; type: binding, human; settings: Table S1; KRAS G12D 50 nM; MgCl2 1 mM, GDP 10 mM as headed
Protocol: as §1, §2
(§4) KRAS G13D (50 nM) was monitored in the presence of 0–900 nM GDP, and KRAS WT, G13D, G12D, and Q61R (50 nM) were monitored with 10 and/or 100 µM GDP, GTP, and ATP in buffer supplemented with 1 mM MgCl2. KRAS WT (50 nM) was also monitored with 10 µM GDP in a buffer without MgCl2 or supplemented with 0–1 mM CaCl2 or 1 mM EDTA. HRAS (2 µM), NRAS (2 µM), RhoA (2 µM), and Gαi (50 nM) were monitored with 100 µM GDP, GTP, or ATP in buffers with or without 1 mM MgCl2 and 1 mM EDTA. In addition, melting curves for KRAS WT (50 nM) were measured with GTP analogs GTPγS, GMPPNP, and GMPPCP (0–300 µM), and GMP (0–1000 µM) in the presence of 1 mM MgCl2.
All inhibitor assays were performed with a buffer containing 1 mM MgCl2.
(§5) Assays were performed using three DARPins alone or in combination with small molecular inhibitors. […] The thermal curves were monitored after an additional 30 min incubation at RT.

[4] = test system: T3, KRAS G13D; test: Protein-Probe thermal stability assay; type: binding, human
T3 construct: GG-Hs.KRAS4b (2-188) G13D; His6-MBP (N, cleaved yes); made in house; host or cells: E. coli
Protocol: as §1, §2, §4, §5

[5] = test system: T4, KRAS Q61R; test: Protein-Probe thermal stability assay; type: binding, human
T4 construct: GG-Hs.KRAS4b (2-188) Q61R; His6-MBP (N, cleaved yes); made in house; host or cells: E. coli
Protocol: as §1, §2, §4, §5

[6] = test system: T5, KRAS Q61L; test: Protein-Probe thermal stability assay; type: binding, human; settings: Table S1; KRAS Q61L 50 nM; MgCl2 1 mM
T5 construct: GG-Hs.KRAS4b (2-188) Q61L; His6-MBP (N, cleaved yes); made in house; host or cells: E. coli
Protocol: as §1, §2, §5

[7] = test system: T6, KRAS V14I; test: Protein-Probe thermal stability assay; type: binding; settings: Table S1; KRAS V14I 1 µM; MgCl2
T6 construct: KRAS V14I (residues 1-169) lacking the C terminal residues; made in house
Protocol: as §1

[8] = test system: T7, Ac-KRAS; test: Protein-Probe thermal stability assay; type: binding, human; settings: Table S1; Ac-KRAS 1 µM; MgCl2
T7 construct: Truncated (aa 1–169) iMet-
Protocol: as §1, §2

[9] = test system: T8, iMet-KRAS; test: Protein-Probe thermal stability assay; type: binding, human; settings: Table S1; iMet-KRAS 1 µM; MgCl2
T8 construct: iMet-KRAS (G-Hs.KRAS4b(1-169)) (Addgene #159539)
Protocol: as §1, §2

[10] = test system: T9, RhoA; test: Protein-Probe thermal stability assay; type: binding; settings: Table S1; RhoA 1 µM; additive concentrations not given (100 µM GDP/GTP)
T9 construct: and RhoA (1-182) were gen-; His6-MBP (N, cleaved yes); made in house; host or cells: E. coli
Protocol: as §1, §2
as §4, with “HRAS (2 µM), NRAS (2 µM), RhoA (2 µM), and Gαi (50 nM) were monitored with 100 µM GDP, GTP, or ATP in buffers with or without 1 mM MgCl2 and 1 mM EDTA.” left out

[11] = test system: Gαi; test: Protein-Probe thermal stability assay; type: binding
Protocol: as §1, §2, §4

[12] = test system: T3, KRAS G13D; test: SYPRO Orange thermal ramping assay; type: binding, human; settings: KRAS G13D 3 µM, 1 mM MgCl2, GDP 1 µM, ATP 1 mM
Protocol: (§6) SYPRO Orange and ANS assays were performed using a one-step protocol, where the samples (8 µL) and SYPRO Orange/ANS solution (12 µL) were combined prior to the first heating step. The samples were incubated for 3 min at each temperature, followed by fluorescence signal measurement. SYPRO Orange was used at 5× (stock 5000×) and ANS at 10 µM final concentration.
(§7) Thermal stability curves for KRAS WT, G12C, G13D, and Q61R (0–30 µM) were monitored both with SYPRO Orange and ANS in an assay buffer with or without 1 mM MgCl2. In addition, HRAS, NRAS, KRAS V14I, RhoA, and Gαi were studied at 10 µM concentration. KRAS G13D (3 µM) was assayed with SYPRO Orange in thermal ramping in combination with 0–1000 µM GDP, 1000 µM GTP, and 1000 µM ATP in a buffer supplemented with 1 mM MgCl2. Additionally, 10 µM HRAS, NRAS, KRAS V14I, Ac-KRAS iMet-KRAS, RhoA, and Gαi were studied without additional nucleotides or with 10 or 100 µM GDP/GTP in an assay buffer supplemented with 1 mM MgCl2 or 1 mM EDTA.

[13] = test system: T6, KRAS V14I; test: SYPRO Orange / ANS thermal ramping assay; type: binding; settings: KRAS V14I 10 µM, 1 mM MgCl2; 100 µM ATP
Protocol: as §6
as §7, with “Additionally, 10 µM HRAS, NRAS, KRAS V14I, Ac-KRAS iMet-KRAS, RhoA, and Gαi were studied without additional nucleotides or with 10 or 100 µM GDP/GTP in an assay buffer supplemented with 1 mM MgCl2 or 1 mM EDTA.” left out

[14] = test system: NRAS, HRAS, RhoA, Gαi; test: Protein-Probe thermal stability assay, additional GTPases; type: binding; settings: any tested condition or protein; data not shown
Protocol: All Protein-Probe assays were performed using a sample volume of 8 μL and a two-step assay protocol. […] Assays were performed in a sample buffer containing 10 mM HEPES (pH 7.5), 0.001% Triton X-100 and 20 mM NaCl and the buffer was supplemented with 0-10 mM MgCl2, 0-1 mM CaCl2, or 0-1 mM EDTA, depending on the assay. […] Depending on the studied protein, thermal ramping was performed up to 95 °C, using 5 °C intervals. At each temperature, samples were incubated for 3 min before the Protein-Probe solution was added, and the TRL-signals at 620 nm were monitored at RT.

For `[Cl-].[Cl-].[Mg+2]` [MgCl2], the “stability increase compared to 1 mM EDTA” value ([1]; KRAS WT 50 nM, additive 1 mM) was 9.1 °C, the Tm ([1]; KRAS WT 100 nM, 10 mM MgCl2) was 64.7 ± 0.5 °C and the “increase of thermal stability over that without MgCl2” value ([1]; KRAS WT 100 nM, 1 or 10 mM MgCl2) was “approximately 10 °C”. For the same compound, the Tm ([1]; KRAS WT 100 nM, additive 1 mM) was 60.1 ± 0.3 °C, the “Thermal Stability (°C)” value ([1]; KRAS WT 50 nM, additive as headed: EDTA 0.5 mM, MgCl2 1 mM, GDP 10 mM, GTP 10 µM, GTPγS 10 µM, GMP-PNP 300 µM, GMP-PCP 300 µM, GMP 1 mM) was 61.3 ± 0.5 °C and the “Thermal Stability (°C)” value ([1]; KRAS WT 1 µM, MgCl2) was 54.4 ± 0.6 °C. The “Thermal Stability (°C)” value [2] was 61.8 ± 0.5 °C, the “Thermal Stability (°C)” value [3] was 60.6 ± 0.5 °C and the Tm ([4]; KRAS G13D 100 nM, additive 1 mM) was 47.7 ± 0.4 °C. For the same compound, the “Thermal Stability (°C)” value ([4]; Table S1, KRAS G13D 50 nM, EDTA 0.5 mM, MgCl2 1 mM, GDP 10 mM, GTP 10 µM as headed) was 50.7 ± 0.2 °C, the Tm ([5]; KRAS Q61R 100 nM, additive 1 mM) was 66.5 ± 0.5 °C and the “Thermal Stability (°C)” value ([5]; Table S1, KRAS Q61R 50 nM, EDTA 0.5 mM, MgCl2 1 mM, GDP 10 mM, GTP 10 µM as headed) was 71.9 ± 0.6 °C. For the same compound, the “Thermal Stability (°C)” value [6] was 60.4 ± 0.5 °C, the “Thermal Stability (°C)” value [7] was 47.5 ± 0.2 °C and the “Thermal Stability (°C)” value [8] was 66.0 ± 1.0 °C. For the same compound, the “Thermal Stability (°C)” value [9] was 66.9 ± 0.2 °C, the “Thermal Stability (°C)” value [10] was 61.3 ± 0.3 °C and the “effect of Mg2+ on thermal stability” value [11] was ~ 4.2 °C.

For `Nc1ncnc2c1ncn2[C@@H]1O[C@H](COP(=O)(O)OP(=O)(O)OP(=O)(O)O)[C@@H](O)[C@H]1O` [ATP, adenosine-5’-triphosphate], the “stabilization” value [12] was “no effect; also recorded: no KRAS G13D stabilization”, the “effect on stability” value [13] was “no effect” and the “stabilization” value [14] was “no stabilization”.
